Measured values taken from US20150065440A1 (Progen Pharmaceuticals Limited, priority 2007, published 2015).
Where a name gives a salt, the structure may show the parent alone. Read-outs that look alike come from different tables or passages of the source.

What was measured:
[1] = molecular target: T1, VEGF (Homo sapiens, UniProt P15692); experiment: Growth factor binding assay (SPR solution affinity), VEGF; conditions: HBS-EP buffer, 25° C.
T1 sequence (P15692 207-395): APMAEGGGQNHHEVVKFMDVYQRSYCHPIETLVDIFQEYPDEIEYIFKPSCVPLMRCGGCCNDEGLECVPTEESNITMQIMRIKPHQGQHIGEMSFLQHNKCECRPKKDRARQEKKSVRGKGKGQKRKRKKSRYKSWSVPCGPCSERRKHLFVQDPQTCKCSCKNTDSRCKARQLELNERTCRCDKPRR
Procedure: (§1) Binding affinities of compounds for the growth factors FGF-1, FGF-2 and VEGF were measured using a surface plasmon resonance (SPR) based solution affinity assay.^9 Heparin-coated sensorchips used for this assay were prepared via immobilisation of biotinylated BSA-heparin on a streptavidin-coated sensorchip, or via aldehyde coupling using either adipic acid dihydrazide or 1,4-diaminobutane.^9 For each Kd measurement, solutions were prepared containing a fixed concentration of protein and varying concentrations of the ligand in buffer. Ligands binding to FGF-1 and VEGF were measured in HBS-EP buffer (10 mM HEPES, pH 7.4, 150 mM NaCl, 3.0 mM EDTA and 0.005% (v/v) polysorbate 20), while binding to FGF-2 was measured in HBS-EP buffer containing 0.3 M NaCl. Prior to injection, samples were maintained at 4° C. to maximise protein stability. For each assay mixture, 50-200 μL of solution was injected at 5-40 μL/min and the relative binding response measured. All surface binding experiments were performed at 25° C. The surface was regenerated by injection of 40 μL of 4M NaCl at 40 μL/min, followed by injection of 40 μL of buffer at 40 μL/min.
(§2) Sensorgram data were analysed using the BIAevaluation software (BIAcore) and Kd values determined as previously described.^9 Where Kd values were measured in duplicate, the values represent the average of the duplicate measurements.

[2] = molecular target: FGF-1 (Homo sapiens, UniProt P05230); experiment: Growth factor binding assay (SPR solution affinity), FGF-1
Procedure: as §1, §2

[3] = molecular target: FGF-2 (Homo sapiens, UniProt P09038); experiment: Growth factor binding assay (SPR solution affinity), FGF-2; conditions: SPR, HBS-EP buffer containing 0.3 M NaCl, 25° C.; read-out: Kd FGF-2
Procedure: as §1, §2

[4] = tested on: pooled normal human plasma; experiment: Anticoagulant activity, APTT; conditions: 0.1 mg/mL in normal pooled human plasma
Procedure: APTT measurements were performed on a STAGO STA-Compact Coagulation Analyser using standard protocols according to the manufacturer's instructions. Unfractionated heparin (UFH) was used as a control.

[5] = tested on: normal pooled human plasma; experiment: Anticoagulant activity, Heptest; conditions: 0.1 mg/mL in normal pooled human plasma
[6] = molecular target: T2, recombinant human heparanase (Homo sapiens, UniProt Q9Y251); experiment: Heparanase inhibition assay (fondaparinux cleavage, WST-1); conditions: read-out: Ki Heparanase; IC50 converted into Ki; fondaparinux 100 μM, pH 5.0
T2 sequence (Q9Y251 158-543 limits assumed): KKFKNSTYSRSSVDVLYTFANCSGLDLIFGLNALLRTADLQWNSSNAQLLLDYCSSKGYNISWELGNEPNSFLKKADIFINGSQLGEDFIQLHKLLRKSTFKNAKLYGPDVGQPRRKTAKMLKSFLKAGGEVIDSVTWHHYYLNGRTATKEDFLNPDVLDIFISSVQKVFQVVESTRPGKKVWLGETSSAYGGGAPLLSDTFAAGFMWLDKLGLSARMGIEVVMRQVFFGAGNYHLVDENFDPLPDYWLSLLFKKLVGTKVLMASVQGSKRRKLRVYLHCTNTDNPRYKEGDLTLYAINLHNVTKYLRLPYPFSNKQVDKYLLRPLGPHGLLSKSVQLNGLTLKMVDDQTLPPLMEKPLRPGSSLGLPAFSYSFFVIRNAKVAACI
T2 sequence (Q9Y251 36-109 limits assumed): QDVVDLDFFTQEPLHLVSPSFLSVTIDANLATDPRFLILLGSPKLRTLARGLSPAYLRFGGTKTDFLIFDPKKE

[7] = tested on: HUVEC proliferation induced by FGF-1; experiment: Growth factor induced endothelial cell proliferation assay, FGF-1; format: cell-based, human; conditions: Homo sapiens, HUVEC, 72 h; read-out: FGF-1 (IC50) inhibition of HUVEC proliferation
Text: (§3) HUVEC cells were maintained and subcultured according to standard cell culture protocols essentially as described by Lonza. Briefly, cells were maintained in Lonza endothelial growth media (EGM) with recommended supplements and growth factors (VEGF, FGF2, EFG, IGF, hydrocortisone, fetal bovine serum (FBS), ascorbic acid, heparin and gentamicin). Cells were subcultured when they reached 70-80% confluence by trypsinisation and reseeding in fresh growth medium in new culture vessels at 2500 to 5000 cells/cm^2 of vessel surface area. Cell counts were performed using a haemocytometer and viable cells were visualized with trypan blue.
(§4) Medium for the proliferation studies was prepared using EGM with 2% FBS and gentamicin only. In a later study, complete EGM was used for the VEGF groups in an attempt to enhance the proliferative index of VEGF-stimulated groups. For the tube formation assay, complete medium was used with only heparin omitted. Compounds under investigation were weighed out from powder stocks and diluted in PBS to 10 mM stock solutions and stored at −80° C. For experiments, compounds were subsequently diluted in EBM-2 medium (supplemented with 2% FBS and gentamicin) to various working concentration as required.
(§5) In the first of a series of experiments, the assay was further optimized by examining the cell density and growth factor concentration required to induce maximal proliferation by growth factors. Briefly, 100 μL of cells was added to each well at concentrations between 1-3×10^3 per well. Growth factors and test compounds were then added in 50 μL volumes at specified concentrations to obtain a final volume of 200 μL. Following incubation for 70 h, 20 μL of the CellTitre 96® Aqueous One Solution Cell Proliferation Assay (Promega) was added for 2 h prior to reading the absorbance at 490 nm to obtain OD values.

[8] = tested on: HUVEC proliferation induced by FGF-2; experiment: Growth factor induced endothelial cell proliferation assay, FGF-2; format: cell-based, human; conditions: Homo sapiens, HUVEC, 72 h; read-out: FGF-2 (IC50) inhibition of HUVEC proliferation
Text: as §3, §4, §5

[9] = tested on: HUVEC proliferation induced by VEGF; experiment: Growth factor induced endothelial cell proliferation assay, VEGF; format: cell-based, human; conditions: Homo sapiens, HUVEC, 72 h; read-out: VEGF (IC50) inhibition of HUVEC proliferation
Text: as §3, §4, §5

[10] = tested on: HSV-2; experiment: Viral plaque number-reduction assay, HSV-2; conditions: Human alphaherpesvirus 2, read-out: HSV-2 IC50
Procedure: (§6) African green monkey kidney (GMK AH1) cells^46 were cultured in Eagle's minimum essential medium (EMEM) supplemented with 2% calf serum, 0.05% Primaton RL substance (Kraft Inc., Norwich, USA) and antibiotics. Human epidermoid carcinoma (HEp-2) cells were cultured in Dulbecco's modified EMEM (DMEM) supplemented with 10% fetal calf serum and antibiotics. […] The RSV strain A-2^50 was used. The RSV stock was prepared as described by Hallak et al.^51 and stored at −70° C. in the presence of 40% sucrose^52.
(§7) The viral infectivity (the plaque number-reduction) assay and the plaque size-reduction assay were carried out as described previously^17. […] Subsequently, the cells were washed with 2 mL of EMEM and overlaid with 1% methylcellulose solution in EMEM. The plaques were visualized by staining with crystal violet solution after 2 (HSV-2) or 3 (HSV-1) days of incubation at 37° C. […] When the compounds were screened for anti-HSV or anti-RSV activity, mixtures of 200 PFU of the virus and the test compound (100 μg/mL) in serum-free EMEM were incubated for 10 min at room temperature before addition to cells and during the entire period of viral infection of cells and the development of viral plaques. In the plaque size-reduction assay, the compounds were added to cells (in methylcellulose overlay medium) after 2 h period of virus infection of cells in the absence of the inhibitor. After 2-3 days of incubation at 37° C., the viral plaques were visualized by staining the cells with 1% solution of crystal violet. For each compound tested, the images of twenty neighboring plaques were captured using a Leica DC300 digital camera attached to a Leitz-Wetzlar Diavert microscope. The area of each plaque was determined using IM500 image software (Leica). Similar protocols were used for RSV, except that the assays were performed in HEp-2 cells and DMEM supplemented with 2% heat-inactivated fetal calf serum was used instead of EMEM.

[11] = tested on: RSV; experiment: Viral plaque number-reduction assay, RSV; conditions: human respiratory syncytial virus, read-out: RSV IC50
Procedure: as §6, §7

[12] = SPR, HBS-EP buffer, 25° C., read-out: Kd FGF-1

Sequence of FGF-2 (P09038 143-288, species assumed): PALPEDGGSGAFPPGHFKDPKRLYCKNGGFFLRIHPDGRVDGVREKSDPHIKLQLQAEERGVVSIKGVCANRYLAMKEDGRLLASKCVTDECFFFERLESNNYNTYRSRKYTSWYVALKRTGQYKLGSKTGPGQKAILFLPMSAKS
Sequence of FGF-1 (P05230 whole entry, species assumed): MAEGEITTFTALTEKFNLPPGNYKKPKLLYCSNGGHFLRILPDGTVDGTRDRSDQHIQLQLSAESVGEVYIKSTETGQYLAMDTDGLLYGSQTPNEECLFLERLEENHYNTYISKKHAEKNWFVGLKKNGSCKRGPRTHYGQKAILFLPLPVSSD

SMILES	Kd [1] [nM]	Kd [2, 12] [nM]	Kd [3] [nM]	APTT [4] [s]	Heptest [5] [s]	Ki [6] [nM]	IC50 [7] [nM]	IC50 [8] [nM]	IC50 [9] [nM]	IC50 [10] [µg/mL]	IC50 [11] [µg/mL]	Kd [2] [nM]
CC(C)CCCC(C)C1CCC2C3CCC4CC(OCc5cn(C6OC(COS(=O)(=O)O)C(OC7OC(COS(=O)(=O)O)C(OC8OC(COS(=O)(=O)O)C(OS(=O)(=O)O)C(OS(=O)(=O)O)C8OS(=O)(=O)O)C(OS(=O)(=O)O)C7OS(=O)(=O)O)C(OS(=O)(=O)O)C6OS(=O)(=O)O)nn5)CCC4(C)C3CCC12C [Compound 76, 4-(Cholestan-3β-yl-oxymethyl)[1,2,3]triazol-1-yl 2,3,4,6-tetra-O-sodium sulfonato-α-D-glucopyranosyl-(1→4)-2,3,6-tri-O-sodium sulfonato-α-D-glucopyranosyl-(1→4)-1-deoxy-2,3,6-tri-O-sodium sulfonato-β-D-glucopyranoside]	790 ± 230	50 ± 8	610 ± 60	61.2	30.2	16 ± 4	–	–	–	–	–	–
CC(=O)OC1CC2C(CCC3CC(OS(=O)(=O)O)CCC32C)C2CCC(C(C)CCC(=O)NC3OC(COS(=O)(=O)O)C(OC4OC(COS(=O)(=O)O)C(OC5OC(COS(=O)(=O)O)C(OC6OC(COS(=O)(=O)O)C(OS(=O)(=O)O)C(OS(=O)(=O)O)C6OS(=O)(=O)O)C(OS(=O)(=O)O)C5OS(=O)(=O)O)C(OS(=O)(=O)O)C4OS(=O)(=O)O)C(OS(=O)(=O)O)C3OS(=O)(=O)O)C12C [Compound 83, N-(2,3,4,6-tetra-O-sodiumsulfonato-α-D-glucopyranosyl-(1→4)-2,3,6-tri-O-sodiumsulfonato-α-D-glucopyranosyl-(1→4)-2,3,6-tri-O-sodiumsulfonato-α-D-glucopyranosyl-(1→4)-2,3,6-tri-O-sodiumsulfonato-β-D-glucopyranosyl)-4-((3R,10S,12S,13R)-3-O-sodiumsulfonato-12-O-acetyl-10,13-dimethylhexadecahydro-1H-cyclopenta[a]phenanthren-17-yl)pentanamide]	7.95 ± 0.07	1.25 ± 0.07	50 ± 4	41.0	26.8	20 ± 5	–	–	–	–	–	–
CC(C)CCCC(C)C1CCC2C3CCC4CC(OC5OC(COS(=O)(=O)O)C(OC6OC(COS(=O)(=O)O)C(OC7OC(COS(=O)(=O)O)C(OS(=O)(=O)O)C(OS(=O)(=O)O)C7OS(=O)(=O)O)C(OS(=O)(=O)O)C6OS(=O)(=O)O)C(OS(=O)(=O)O)C5OS(=O)(=O)O)CCC4(C)C3CCC12C [Compound 87, 3β-Cholestanyl 2,3,4,6-tetra-O-sodium sulfonato-α-D-glucopyranosyl-(1→4)-2,3,6-tri-O-sodium sulfonato-α-D-glucopyranosyl-(1→4)-2,3,6-tri-O-sodium sulfonato-β-D-glucopyranoside]	190 ± 60	24.8 ± 2.3	547 ± 50	51.6	29.2	9.1 ± 2.5	–	–	–	–	–	–
CC(C)CCC[C@@H](C)[C@H]1CC[C@H]2[C@@H]3CCC4CC(O[C@@H]5O[C@H](COS(=O)(=O)O)[C@@H](O[C@@H]6O[C@H](COS(=O)(=O)O)[C@@H](OS(=O)(=O)O)[C@H](OS(=O)(=O)O)[C@H]6OS(=O)(=O)O)[C@H](OS(=O)(=O)O)[C@H]5OS(=O)(=O)O)CC[C@]4(C)[C@H]3CC[C@]12C (stereo partly drawn) [Compound 107, 3′-Cholestanyl 2,3,4,6-tetra-O-sulfo-β-D-glucopyranosyl-(1→4)-2,3,6-tri-O-sulfo-β-D-glucopyranoside, heptasodium salt]	1350 ± 70	–	–	38.8	25.3	–	5750	5590	5560	0.43	1.9	–
CC(C)CCC[C@@H](C)[C@H]1CC[C@H]2[C@@H]3CCC4CC(O[C@@H]5O[C@H](COS(=O)(=O)O)[C@@H](O[C@@H]6O[C@H](COS(=O)(=O)O)[C@H](OS(=O)(=O)O)[C@H](OS(=O)(=O)O)[C@H]6OS(=O)(=O)O)[C@H](OS(=O)(=O)O)[C@H]5OS(=O)(=O)O)CC[C@]4(C)[C@H]3CC[C@]12C (stereo partly drawn) [Compound 112, 3′-Cholestanyl 2,3,4,6-tetra-O-sulfo-β-D-galactopyranosyl-(1→4)-2,3,6-tri-O-sulfo-β-D-glucopyranoside, heptasodium salt]	430 ± 140	–	2100 ± 300	38.9	25.4	–	–	–	–	0.45	2.4	900 ± 150
